Source: PMC6891666, “Identifying Phlorofucofuroeckol-A as a Dual Inhibitor of Amyloid-β25-35 Self-Aggregation and Insulin Glycation: Elucidation of the Molecular Mechanism of Action” (Marine Drugs, 2019)
Where two headings read alike, the source gives them in different places.

Columns and labels:
[1] = biological target: T1, Aβ25-35 (Homo sapiens, UniProt P05067); assay: Aβ25-35 self-aggregation assay (thioflavin-T fluorescence); type: biochemical; details: for inhibition at 10 µM: read-out: inhibition of Aβ25-35 self-aggregation
T1 construct: Gly1 and Phe1 for insulin) and C-terminals (Met35 for Aβ25-35; purchased Sigma-Aldrich
Method: A monomeric Aβ25-35 solution was prepared using the method of Naldi and coworkers. A 2.5 μL aliquot of various concentrations of the tested phlorotannins in 50 mM phosphate buffer (pH 7.4) with 100 mM NaCl was added to 72.5 μL of Aβ25-35 sample (100 μM), and the mixture was incubated at 4 °C for 1 day. After incubation, 25 μM thioflavin T in 50 mM glycine-NaOH buffer (pH 8.5) was added to the reaction mixture. Fluorescence emission intensity was monitored at 490 nm (λexc = 446 nm) using a fluorescence microplate reader (Gemini XPS, Molecular Devices, Sunnyvale, CA, USA).

[2] = biological target: T2, bovine insulin (Bos taurus, UniProt P01317); assay: D-ribose-induced non-enzymatic insulin glycation assay; type: biochemical; details: for inhibitory activity on D-ribose-induced insulin glycation: at 100 µM
T2 construct: Phe1 and Asn3 in chain B and Ser12, Gln15, Glu17, and Asn18 in chain A of the insulin; purchased Sigma-Aldrich; host or cells: bovine pancreas
T2 sequence (P01317 25-54 limits assumed): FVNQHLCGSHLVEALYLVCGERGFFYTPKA
T2 sequence (P01317 85-105 limits assumed): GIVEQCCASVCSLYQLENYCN
Method: (§1) Glycated bovine insulin was observed by fluorescence spectroscopy because AGEs are marked by a typical fluorescence emission at 410 nm (excitation at 320 nm). To verify our experimental condition, we used vanillin as a negative control for D-ribose-induced protein glycation and rutin as a positive control for d-glucose-induced protein glycation.
(§2) The insulin from bovine pancreas was dissolved in third grade distilled water to a concentration of 6 mg/mL and acidified to pH 2.4 using phosphoric acid to produce monomeric insulin. Then the insulin solution was neutralized to pH 7.0 using 10 M NaOH. Non-enzymatic glycation of insulin was initiated by mixing the insulin solution, 0.5 M D-ribose (or 1.5 M D-glucose) in 50 mM NaH2PO4 buffer (pH 7.0), and 10% dimethyl sulfoxide (DMSO) or the test phlorotannins in a 1:8:1 ratio and incubating the mixture at 37 °C for 6 days (2 weeks for D-glucose induced insulin glycation). Vanillin was used as a negative control for D-ribose induced insulin glycation, whereas rutin was used as a positive control for D-glucose induced insulin glycation. After incubation, the reaction mixture was measured at an excitation wavelength of 320 nm and emission wavelength of 410 nm using a fluorescence microplate reader (Gemini XPS).

[3] = biological target: T2, bovine insulin; assay: D-glucose-induced non-enzymatic insulin glycation assay; type: biochemical
Method: as §1, §2

[4] = tested on: lipid peroxidation in rat brain homogenates; assay: Lipid peroxidation (TBARS) assay in whole rat brain homogenates; type: biochemical; details: Fe2+-treated rat brain homogenates, MDA level, mean ± SD, n = 3
Method: Whole rat brain homogenates were prepared from freshly killed Sprague Dawley rats (male, 6-months old) and provided by the Aging Tissue Bank of Pusan National University. One g of whole rat brain was homogenized in 10 mL of cold 20 mM sodium phosphate buffer containing 140 mM KCl (pH 7.4) and centrifuged at 1300× g for 15 min.
A TBA reactive species (TBARS) assay was used to evaluate the antioxidant activity of the phlorotannins in the rat brain homogenates. An aliquot of the supernatant fraction of the homogenates was mixed with phlorotannins dissolved in 10% DMSO, freshly prepared ferric sulfate (250 μM), and distilled water in a 10:5:3:12 ratio, and then the reaction mixture was incubated at 37 °C for 1 h. The reaction was completed by adding a color reagent containing 0.8% TBA, 8.1% SDS, and a 7.5% (final concentration) acetic acid-NaOH solution (pH 3.4) in a 2:1:2 ratios. The mixture was boiled in a water bath for 1 h. After cooling, the reaction mixture was mixed with an equal volume of n-butanol and centrifuged at 1300× g for 10 min. The absorbance of the upper layer was measured at 532 nm using a spectrophotometer (Molecular Devices). The formation of TBARS was expressed as MDA nmol/mg protein using 1,1,3,3-tetramethoxypropane as a standard. Trolox was used as a positive control.

[5] = rats, intravenous injection; cited from earlier work
[6] = parameters: method as in PMID 30744179; details: pharmacokinetic parameter prediction study; cited from earlier work
[7] = at 10 μM, thioflavin-T fluorescence
[8] = thioflavin-T fluorescence, Aβ25-35 100 μM, mean ± SD, n = 3, read-out: IC50 Aβ25-35 Aggregation
[9] = bovine insulin, D-ribose, mean ± SD, n = 3, read-out: IC50 D-Ribose-Induced Insulin Glycation
[10] = bovine insulin, D-glucose, 2 weeks incubation, mean ± SD, n = 3, read-out: IC50 D-Glucose-Induced Insulin Glycation

| Compound | inhibition at 10 µM [1, 7] | IC50 [1, 8] | IC50 [2, 9] | IC50 [3, 10] | EC50 [4] | also measured |
| --- | --- | --- | --- | --- | --- | --- |
| Oc1cc(O)cc(Oc2c(O)cc(O)c3c2Oc2c(O)cc(Oc4c(O)cc(Oc5c(O)cc(O)c6c5Oc5c(O)cc(O)cc5O6)cc4O)cc2O3)c1 [Dieckol, dieckol] | 67% | 7.93 ± 0.16 µM | 63.7 ± 3.83 µM | > 100 µM | 13.5 ± 0.38 µM | BBB passage [5]: effectively passed the BBB |
| Oc1cc(O)c2oc3cc(O)c4oc5cc(O)cc(O)c5oc4c3oc2c1 [Dioxinodehydroeckol, dioxinodehydroeckol] |  |  |  |  | 12.4 ± 1.5 µM | IC50 [1]: 8.31 ± 0.23 µM; inhibition at 10 µM [1]: 66.1%; IC50 [2]: > 100 µM; inhibitory activity on D-ribose-induced insulin glycation [2]: weak or no inhibitory activity; IC50 [3]: > 100 µM |
| Oc1cc(O)cc(Oc2c(O)cc(O)c3c2Oc2c(O)cc4oc5c(Oc6cc(O)cc(O)c6)c(O)cc(O)c5c4c2O3)c1 [Phlorofucofuroeckol-A, phlorofucofuroeckol-A] | 80% | 6.18 ± 0.18 µM | 29.5 ± 0.53 µM | 43.5 ± 2.38 µM | 11 ± 0.16 µM |  |
| C[C@@H]1O[C@@H](OC[C@H]2O[C@@H](Oc3c(-c4ccc(O)c(O)c4)oc4cc(O)cc(O)c4c3=O)[C@H](O)[C@@H](O)[C@@H]2O)[C@H](O)[C@H](O)[C@H]1O [Rutin, rutin, reference compound] |  |  |  | 5.19 ± 1.35 µM |  |  |
| Cc1c(C)c2c(c(C)c1O)CCC(C)(C(=O)O)O2 (stereo not shown) [Trolox, reference compound] |  |  |  |  | 49 ± 3.5 µM |  |

The next lines start with results.

| inhibition at 10 µM [1, 7] | IC50 [1, 8] | IC50 [2, 9] | IC50 [3, 10] | EC50 [4] | Compound | also measured |
| --- | --- | --- | --- | --- | --- | --- |
| 34.5% | 34.4 ± 1.11 µM | 259 ± 10.8 µM | > 100 µM | 38.6 ± 1.16 µM | Oc1cc(O)cc(Oc2c(O)cc(O)c3c2Oc2c(O)cc(O)cc2O3)c1 [Eckol, eckol] | CNS penetration [6]: penetrates the CNS moderately |
|  | > 100 µM | > 100 µM | > 100 µM | > 75 µM | Oc1cc(O)cc(O)c1 [Phloroglucinol, phloroglucinol] | inhibitory effect on Aβ25-35 self-aggregation ([1]; at 50 μM): no inhibitory effect; inhibitory activity on D-ribose-induced insulin glycation [2]: weak or no inhibitory activity; inhibition at 100 µM ([3]; at 100 µM): 40% |
|  |  | > 500 µM |  |  | COc1cc(C=O)ccc1O [Vanillin, vanillin, reference compound] | activity on D-ribose-induced insulin glycation ([2]; at 500 µM, negative control): no activity |
